Experimental data taken from the supplement of paper PMC10307832.

Tests used:
Assay in all cases: relative viability (nuclei count vs DMSO), 5 days (fraction); higher = more cells survive
[1] = compound: COc1cc2nccc(Oc3ccc(NC(=O)C4(C(=O)Nc5ccc(F)cc5)CC4)cc3)c2cc1OC [Cabozantinib] + CS(=O)(=O)N1CCN(Cc2cc3nc(-c4cccc5[nH]ncc45)nc(N4CCOCC4)c3s2)CC1 [Pictilisib] (partner 1 µM)
Procedure, shortened: (§1)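 A single step with final 0.05% Triton X-100, 1% formaldehyde and 1 ug/ml Hoechst fixed the cells and stained nuclei 5 days after treatment. Lung cancer cell lines in 1536-well plates had been treated by pin tool the day after seeding with one drug alone or a fixed anchor-drug dose plus five library-drug doses (not always all listed) in √10 steps, and nuclei were counted on 4× images. Relative viability is the ratio of nuclei in treated wells to nuclei in vehicle wells, taken as the median of duplicate plates.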

Kobe2602 + Crizotinib = compound: C1=CC(=CC=C1NC(=S)NNC2=C(C=C(C=C2[N+](=O)[O-])C(F)(F)F)[N+](=O)[O-])F [Kobe2602] + C[C@@H](Oc1cc(-c2cnn(C3CCNCC3)c2)cnc1N)c1c(Cl)ccc(F)c1Cl [Crizotinib] (partner 1 µM)
Procedure, shortened: as §1

Kobe2602 + Trametinib = compound: C1=CC(=CC=C1NC(=S)NNC2=C(C=C(C=C2[N+](=O)[O-])C(F)(F)F)[N+](=O)[O-])F [Kobe2602] + CC(=O)Nc1cccc(-n2c(=O)n(C3CC3)c(=O)c3c(Nc4ccc(I)cc4F)n(C)c(=O)c(C)c32)c1 [Trametinib] (partner 0.02 µM)
Procedure, shortened: as §1

Cabozantinib + Olaparib = compound: COc1cc2nccc(Oc3ccc(NC(=O)C4(C(=O)Nc5ccc(F)cc5)CC4)cc3)c2cc1OC [Cabozantinib] + O=C(c1cc(Cc2n[nH]c(=O)c3ccccc23)ccc1F)N1CCN(C(=O)C2CC2)CC1 [Olaparib] (partner 8 µM)
Procedure, shortened: as §1

| Cell Line | relative viability ([1]; first compound 0.02 µM) | relative viability ([1]; first compound 0.06325 µM) | relative viability ([1]; first compound 0.2 µM) | relative viability ([1]; first compound 0.6325 µM) | relative viability ([1]; first compound 2 µM) | relative viability (Kobe2602 + Crizotinib; first compound 0.2 µM) | relative viability (Kobe2602 + Crizotinib; first compound 0.6325 µM) | relative viability (Kobe2602 + Crizotinib; first compound 6.325 µM) | relative viability (Kobe2602 + Crizotinib; first compound 20 µM) | relative viability (Kobe2602 + Trametinib; first compound 0.2 µM) | relative viability (Kobe2602 + Trametinib; first compound 0.6325 µM) | relative viability (Kobe2602 + Trametinib; first compound 2 µM) | relative viability (Kobe2602 + Trametinib; first compound 6.325 µM) | relative viability (Kobe2602 + Trametinib; first compound 20 µM) | relative viability (Cabozantinib + Olaparib; first compound 0.06325 µM) | relative viability (Cabozantinib + Olaparib; first compound 0.2 µM) | relative viability (Cabozantinib + Olaparib; first compound 0.6325 µM) | relative viability (Cabozantinib + Olaparib; first compound 2 µM) | relative viability (Cabozantinib + Olaparib; first compound 0.02 µM) | relative viability (Kobe2602 + Crizotinib; first compound 2 µM) |
| --- | --- | --- | --- | --- | --- | --- | --- | --- | --- | --- | --- | --- | --- | --- | --- | --- | --- | --- | --- | --- |
| HCC-78 | 0.178 | 0.228 | 0.174 | 0.177 | 0.192 | 0.382 | 0.302 | 0.333 | 0.363 | 0.708 | 0.891 | 0.633 | 0.768 | 0.8 | 0.886 | 0.753 | 0.443 | 0.405 | – | – |
| NCI-H2342 | – | – | – | – | – | – | – | – | – | 0.741 | 0.84 | 0.794 | 0.68 | 0.84 | 0.454 | 0.746 | 0.495 | 0.379 | 0.436 | – |
| ABC-1 | 0.604 | 0.707 | 0.681 | 0.701 | 0.819 | 1 | 1.04 | 1.21 | 1.08 | – | – | – | – | – | 0.786 | 0.939 | 0.598 | 0.816 | – | 1.06 |
| NCI-H1563 | 0.572 | 0.607 | 0.637 | 0.621 | 0.66 | 0.844 | 0.885 | 0.939 | 0.85 | – | – | – | – | – | – | – | – | – | – | 0.749 |
| NCI-H522 | – | – | – | – | – | – | – | – | – | 0.9 | 0.947 | 0.736 | 0.742 | 0.723 | 0.667 | 0.584 | 0.625 | 0.648 | 0.714 | – |
| SW 900 | – | – | – | – | – | – | – | – | – | 0.959 | 0.745 | 0.807 | 0.677 | 0.548 | 0.941 | 0.664 | 0.636 | 0.684 | 0.877 | – |
| EBC-1 | 0.29 | 0.193 | 0.169 | 0.166 | 0.107 | 0.225 | 0.239 | 0.203 | 0.216 | – | – | – | – | – | 0.452 | 0.16 | 0.136 | 0.123 | 0.748 | 0.185 |
| NCI-H1395 | 0.657 | 0.644 | 0.609 | 0.675 | 0.689 | – | – | – | – | 0.991 | 1.06 | 1.03 | 0.989 | 1.19 | 0.466 | 0.497 | 0.46 | 0.454 | 0.439 | – |
| IA-LM | 0.471 | 0.381 | 0.356 | 0.39 | 0.412 | 0.64 | 0.671 | 0.789 | 0.703 | – | – | – | – | – | 0.849 | 0.801 | 1.06 | 0.925 | 0.817 | 0.718 |
| NCI-H1793 | 0.416 | 0.325 | 0.296 | 0.27 | 0.293 | – | – | – | – | 0.437 | 0.459 | 0.449 | 0.394 | 0.399 | 0.899 | – | 0.756 | 0.599 | 1.01 | – |
